Test results reported in PubChem BioAssay (NCI).
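These data come from cells grown in 96-well plates and exposed to compound for 48 hours at five concentrations. The concentration for full growth arrest is given as TGI.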

Tests used:
Test in all cases: NCI-60 cell line screen, 48 h
HCT-15 colon = system: HCT-15 colon
NCI/ADR-RES ovarian = system: NCI/ADR-RES ovarian
SNB-75 CNS = system: SNB-75 CNS
SNB-19 CNS = system: SNB-19 CNS
NCI-H226 lung = system: NCI-H226 lung
DU-145 prostate = system: DU-145 prostate
A498 renal = system: A498 renal
SR leukemia = system: SR leukemia
NCI-H460 lung = system: NCI-H460 lung
ACHN renal = system: ACHN renal
SK-OV-3 ovarian = system: SK-OV-3 ovarian
T-47D breast = system: T-47D breast
PC-3 prostate = system: PC-3 prostate
OVCAR-3 ovarian = system: OVCAR-3 ovarian
OVCAR-8 ovarian = system: OVCAR-8 ovarian
LOX IMVI melanoma = system: LOX IMVI melanoma
OVCAR-5 ovarian = system: OVCAR-5 ovarian
UO-31 renal = system: UO-31 renal
UACC-62 melanoma = system: UACC-62 melanoma
COLO 205 colon = system: COLO 205 colon
UACC-257 melanoma = system: UACC-257 melanoma
MOLT-4 leukemia = system: MOLT-4 leukemia
IGROV1 ovarian = system: IGROV1 ovarian
HS 578T breast = system: HS 578T breast
MDA-MB-435 = system: MDA-MB-435
NCI-H522 lung = system: NCI-H522 lung
SW-620 colon = system: SW-620 colon
M14 melanoma = system: M14 melanoma
TK-10 renal = system: TK-10 renal
K-562 leukemia = system: K-562 leukemia
A549 NSCLC = system: A549 NSCLC
HT29 colon = system: HT29 colon
SK-MEL-5 melanoma = system: SK-MEL-5 melanoma
KM12 colon = system: KM12 colon
HL-60(TB) leukemia = system: HL-60(TB) leukemia
OVCAR-4 ovarian = system: OVCAR-4 ovarian
BT-549 breast = system: BT-549 breast
HOP-92 NSCLC = system: HOP-92 NSCLC
NCI-H23 lung = system: NCI-H23 lung
EKVX NSCLC = system: EKVX NSCLC
HCT-116 colon = system: HCT-116 colon
SF-539 CNS = system: SF-539 CNS
MCF7 breast = system: MCF7 breast
RPMI-8226 leukemia = system: RPMI-8226 leukemia
SN12C renal = system: SN12C renal
CAKI-1 renal = system: CAKI-1 renal
SK-MEL-2 melanoma = system: SK-MEL-2 melanoma
SF-295 CNS = system: SF-295 CNS
CCRF-CEM leukemia = system: CCRF-CEM leukemia
RXF 393 renal = system: RXF 393 renal
U251 CNS = system: U251 CNS
MDA-N = system: MDA-N
SF-268 CNS = system: SF-268 CNS
786-0 renal = system: 786-0 renal
MDA-MB-231 breast = system: MDA-MB-231 breast
SK-MEL-28 melanoma = system: SK-MEL-28 melanoma
HCC-2998 colon = system: HCC-2998 colon
HOP-62 NSCLC = system: HOP-62 NSCLC
MALME-3M melanoma = system: MALME-3M melanoma

In the case of `COc1ccc(NC=O)c(C(=O)CCNC(C)=O)c1`, the TGI (HCT-15 colon) is reported as > 100 µM, the TGI (NCI/ADR-RES ovarian) is reported as > 100 µM and the TGI (SNB-75 CNS) is reported as > 100 µM. For the same compound, the TGI (SNB-19 CNS) was > 100 µM, the TGI (NCI-H226 lung) was > 100 µM and the TGI (DU-145 prostate) was > 100 µM. For the same compound, the TGI (A498 renal) was > 100 µM, the TGI (SR leukemia) was > 100 µM and the TGI (NCI-H460 lung) was > 100 µM. The TGI (ACHN renal) was > 100 µM, the TGI (SK-OV-3 ovarian) was > 100 µM and the TGI (T-47D breast) was > 100 µM. The TGI (PC-3 prostate) was > 100 µM, the TGI (OVCAR-3 ovarian) was > 100 µM and the TGI (OVCAR-8 ovarian) was > 100 µM. The TGI (LOX IMVI melanoma) was > 100 µM, the TGI (OVCAR-5 ovarian) was > 100 µM and the TGI (UO-31 renal) was > 100 µM. For the same compound, the TGI (UACC-62 melanoma) was > 100 µM, the TGI (COLO 205 colon) was > 100 µM and the TGI (UACC-257 melanoma) was > 100 µM. For the same compound, the TGI (MOLT-4 leukemia) was > 100 µM, the TGI (IGROV1 ovarian) was > 100 µM and the TGI (HS 578T breast) was > 100 µM. For the same compound, the TGI (MDA-MB-435) was > 100 µM, the TGI (NCI-H522 lung) was > 100 µM and the TGI (SW-620 colon) was > 100 µM. For the same compound, the TGI (M14 melanoma) was > 100 µM, the TGI (TK-10 renal) was > 100 µM and the TGI (K-562 leukemia) was > 100 µM. For the same compound, the TGI (A549 NSCLC) was > 100 µM, the TGI (HT29 colon) was > 100 µM and the TGI (SK-MEL-5 melanoma) was > 100 µM. For the same compound, the TGI (KM12 colon) was > 100 µM, the TGI (HL-60(TB) leukemia) was > 100 µM and the TGI (OVCAR-4 ovarian) was > 100 µM. For the same compound, the TGI (BT-549 breast) was > 100 µM, the TGI (HOP-92 NSCLC) was > 100 µM and the TGI (NCI-H23 lung) was > 100 µM. The TGI (EKVX NSCLC) was > 100 µM, the TGI (HCT-116 colon) was > 100 µM and the TGI (SF-539 CNS) was > 100 µM. The TGI (MCF7 breast) was > 100 µM, the TGI (RPMI-8226 leukemia) was > 100 µM and the TGI (SN12C renal) was > 100 µM. The TGI (CAKI-1 renal) was > 100 µM, the TGI (SK-MEL-2 melanoma) was > 100 µM and the TGI (SF-295 CNS) was > 100 µM. For the same compound, the TGI (CCRF-CEM leukemia) was > 100 µM, the TGI (RXF 393 renal) was > 100 µM and the TGI (U251 CNS) was > 100 µM. The TGI (MDA-N) was > 100 µM, the TGI (SF-268 CNS) was > 100 µM and the TGI (786-0 renal) was > 100 µM. For the same compound, the TGI (MDA-MB-231 breast) was > 100 µM.
`C[C@@]1(O)C2C3CC4C5C3C1[C@](O)(C42)[C@H]5Br` (stereo partly specified) was tested, and the TGI (HCT-15 colon) was > 100 µM, the TGI (NCI/ADR-RES ovarian) was > 100 µM and the TGI (SK-MEL-28 melanoma) was > 100 µM. For the same compound, the TGI (SNB-19 CNS) was > 100 µM, the TGI (DU-145 prostate) was > 100 µM and the TGI (A498 renal) was > 100 µM. For the same compound, the TGI (SR leukemia) was > 100 µM, the TGI (NCI-H460 lung) was > 100 µM and the TGI (ACHN renal) was > 100 µM. The TGI (T-47D breast) was > 100 µM, the TGI (PC-3 prostate) was > 100 µM and the TGI (OVCAR-3 ovarian) was > 100 µM. The TGI (OVCAR-8 ovarian) was > 100 µM, the TGI (LOX IMVI melanoma) was > 100 µM and the TGI (OVCAR-5 ovarian) was > 100 µM. The TGI (UO-31 renal) was > 100 µM, the TGI (UACC-62 melanoma) was > 100 µM and the TGI (COLO 205 colon) was > 100 µM. For the same compound, the TGI (UACC-257 melanoma) was > 100 µM, the TGI (MOLT-4 leukemia) was > 100 µM and the TGI (IGROV1 ovarian) was > 100 µM. The TGI (HS 578T breast) was > 100 µM, the TGI (MDA-MB-435) was > 100 µM and the TGI (NCI-H522 lung) was > 100 µM. The TGI (SW-620 colon) was > 100 µM, the TGI (M14 melanoma) was > 100 µM and the TGI (TK-10 renal) was > 100 µM. For the same compound, the TGI (K-562 leukemia) was > 100 µM, the TGI (A549 NSCLC) was > 100 µM and the TGI (HT29 colon) was > 100 µM. For the same compound, the TGI (HCC-2998 colon) was > 100 µM, the TGI (SK-MEL-5 melanoma) was > 100 µM and the TGI (KM12 colon) was > 100 µM. The TGI (HL-60(TB) leukemia) was > 100 µM, the TGI (OVCAR-4 ovarian) was > 100 µM and the TGI (BT-549 breast) was > 100 µM. The TGI (HOP-92 NSCLC) was > 100 µM, the TGI (NCI-H23 lung) was > 100 µM and the TGI (EKVX NSCLC) was > 100 µM. The TGI (HCT-116 colon) was > 100 µM, the TGI (SF-539 CNS) was > 100 µM and the TGI (MCF7 breast) was > 100 µM. For the same compound, the TGI (SN12C renal) was > 100 µM, the TGI (CAKI-1 renal) was > 100 µM and the TGI (SK-MEL-2 melanoma) was > 100 µM. For the same compound, the TGI (SF-295 CNS) was > 100 µM, the TGI (CCRF-CEM leukemia) was > 100 µM and the TGI (RXF 393 renal) was > 100 µM. For the same compound, the TGI (U251 CNS) was > 100 µM, the TGI (MDA-N) was > 100 µM and the TGI (SF-268 CNS) was > 100 µM. For the same compound, the TGI (786-0 renal) was > 100 µM, the TGI (MDA-MB-231 breast) was > 100 µM and the TGI (HOP-62 NSCLC) was > 100 µM.
With `CC1(C)C2CCC(=O)C1C(OCc1ccccc1)C2` (stereo unspecified) the TGI (HCT-15 colon) was > 100 µM, the TGI (MALME-3M melanoma) was > 100 µM and the TGI (NCI/ADR-RES ovarian) was > 100 µM. The TGI (SNB-75 CNS) was > 100 µM, the TGI (SK-MEL-28 melanoma) was > 100 µM and the TGI (SNB-19 CNS) was > 100 µM. For the same compound, the TGI (NCI-H226 lung) was > 100 µM, the TGI (DU-145 prostate) was > 100 µM and the TGI (A498 renal) was > 100 µM. The TGI (SR leukemia) was > 100 µM, the TGI (NCI-H460 lung) was > 100 µM and the TGI (ACHN renal) was > 100 µM. For the same compound, the TGI (SK-OV-3 ovarian) was > 100 µM, the TGI (T-47D breast) was > 100 µM and the TGI (PC-3 prostate) was > 100 µM. For the same compound, the TGI (OVCAR-3 ovarian) was > 100 µM, the TGI (OVCAR-8 ovarian) was > 100 µM and the TGI (LOX IMVI melanoma) was > 100 µM. The TGI (OVCAR-5 ovarian) was > 100 µM, the TGI (UO-31 renal) was > 100 µM and the TGI (UACC-62 melanoma) was > 100 µM. For the same compound, the TGI (COLO 205 colon) was > 100 µM, the TGI (UACC-257 melanoma) was > 100 µM and the TGI (MOLT-4 leukemia) was > 100 µM. For the same compound, the TGI (IGROV1 ovarian) was > 100 µM, the TGI (HS 578T breast) was > 100 µM and the TGI (MDA-MB-435) was > 100 µM. For the same compound, the TGI (NCI-H522 lung) was > 100 µM, the TGI (SW-620 colon) was > 100 µM and the TGI (M14 melanoma) was > 100 µM. For the same compound, the TGI (TK-10 renal) was > 100 µM, the TGI (K-562 leukemia) was > 100 µM and the TGI (A549 NSCLC) was > 100 µM. The TGI (HT29 colon) was > 100 µM, the TGI (HCC-2998 colon) was > 100 µM and the TGI (SK-MEL-5 melanoma) was 50.6 µM. For the same compound, the TGI (KM12 colon) was > 100 µM, the TGI (HL-60(TB) leukemia) was > 100 µM and the TGI (OVCAR-4 ovarian) was > 100 µM. The TGI (BT-549 breast) was > 100 µM, the TGI (NCI-H23 lung) was > 100 µM and the TGI (HCT-116 colon) was > 100 µM. The TGI (SF-539 CNS) was > 100 µM, the TGI (MCF7 breast) was > 100 µM and the TGI (RPMI-8226 leukemia) was > 100 µM. The TGI (SN12C renal) was > 100 µM, the TGI (CAKI-1 renal) was > 100 µM and the TGI (SK-MEL-2 melanoma) was > 100 µM. The TGI (SF-295 CNS) was > 100 µM, the TGI (CCRF-CEM leukemia) was > 100 µM and the TGI (RXF 393 renal) was > 100 µM. The TGI (U251 CNS) was > 100 µM, the TGI (MDA-N) was > 100 µM and the TGI (SF-268 CNS) was > 100 µM. The TGI (786-0 renal) was > 100 µM, the TGI (MDA-MB-231 breast) was > 100 µM and the TGI (HOP-62 NSCLC) was > 100 µM.
